Source: patent US20240366589A1, “NHE3-BINDING COMPOUNDS AND METHODS FOR INHIBITING PHOSPHATE TRANSPORT” (Ardelyx, Inc., priority 2013, published 2024)

Columns and labels:
[1] = biological target: T1, Rat NHE3 (Rattus norvegicus, UniProt P26433); test: Cell-based NHE3 activity under prompt conditions (OK cells, BCECF pH recovery), rat NHE3; conditions: Table E5; 001 free base, 002-005 dihydrochloride salt
T1 construct: expressed in transfected cells; host or cells: Opossum kidney (OK) cells (ATCC), electroporation
T1 sequence (P26433 29-831): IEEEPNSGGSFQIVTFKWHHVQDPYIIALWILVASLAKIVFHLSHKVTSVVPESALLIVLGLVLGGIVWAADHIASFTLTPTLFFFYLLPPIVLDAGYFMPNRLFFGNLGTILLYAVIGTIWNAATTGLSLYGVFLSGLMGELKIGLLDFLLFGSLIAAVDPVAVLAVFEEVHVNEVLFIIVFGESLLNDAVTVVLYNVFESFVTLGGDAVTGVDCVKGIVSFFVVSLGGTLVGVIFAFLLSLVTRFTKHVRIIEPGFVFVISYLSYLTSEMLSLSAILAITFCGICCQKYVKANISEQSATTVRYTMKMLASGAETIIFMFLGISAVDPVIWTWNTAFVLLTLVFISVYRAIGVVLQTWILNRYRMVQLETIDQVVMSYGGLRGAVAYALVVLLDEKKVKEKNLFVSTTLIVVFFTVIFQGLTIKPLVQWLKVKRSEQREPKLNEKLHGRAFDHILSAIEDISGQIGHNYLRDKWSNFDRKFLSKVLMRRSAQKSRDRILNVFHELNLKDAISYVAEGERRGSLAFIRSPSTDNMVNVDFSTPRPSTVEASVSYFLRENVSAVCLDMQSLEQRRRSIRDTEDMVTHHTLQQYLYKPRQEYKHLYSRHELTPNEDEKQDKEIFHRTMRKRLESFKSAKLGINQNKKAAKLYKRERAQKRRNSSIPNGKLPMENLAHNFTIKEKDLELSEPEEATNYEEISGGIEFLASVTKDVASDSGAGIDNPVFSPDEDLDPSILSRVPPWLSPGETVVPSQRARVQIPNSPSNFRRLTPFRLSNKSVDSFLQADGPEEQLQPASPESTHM
Summary of the method: (§1)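 Fluorometric NHE3 antiport assay in opossum kidney cells carrying rat or human NHE3, using BCECF pH recovery after NH4Cl-prepulse acid loading. pIC50 values derive from initial rates averaged across at least two replicates.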

[2] = biological target: T2, Human NHE3 (Homo sapiens, UniProt P48764); test: Cell-based NHE3 activity under prompt conditions (OK cells, BCECF pH recovery), human NHE3; conditions: for Human NHE3 pIC50 Prompt: Table E5, 001 free base, 002-005 dihydrochloride salt; for pIC50 Prompt: Table E6, NHE3 species not stated
T2 construct: expressed in transfected cells; host or cells: Opossum kidney (OK) cells (ATCC), electroporation
T2 sequence (P48764 26-834): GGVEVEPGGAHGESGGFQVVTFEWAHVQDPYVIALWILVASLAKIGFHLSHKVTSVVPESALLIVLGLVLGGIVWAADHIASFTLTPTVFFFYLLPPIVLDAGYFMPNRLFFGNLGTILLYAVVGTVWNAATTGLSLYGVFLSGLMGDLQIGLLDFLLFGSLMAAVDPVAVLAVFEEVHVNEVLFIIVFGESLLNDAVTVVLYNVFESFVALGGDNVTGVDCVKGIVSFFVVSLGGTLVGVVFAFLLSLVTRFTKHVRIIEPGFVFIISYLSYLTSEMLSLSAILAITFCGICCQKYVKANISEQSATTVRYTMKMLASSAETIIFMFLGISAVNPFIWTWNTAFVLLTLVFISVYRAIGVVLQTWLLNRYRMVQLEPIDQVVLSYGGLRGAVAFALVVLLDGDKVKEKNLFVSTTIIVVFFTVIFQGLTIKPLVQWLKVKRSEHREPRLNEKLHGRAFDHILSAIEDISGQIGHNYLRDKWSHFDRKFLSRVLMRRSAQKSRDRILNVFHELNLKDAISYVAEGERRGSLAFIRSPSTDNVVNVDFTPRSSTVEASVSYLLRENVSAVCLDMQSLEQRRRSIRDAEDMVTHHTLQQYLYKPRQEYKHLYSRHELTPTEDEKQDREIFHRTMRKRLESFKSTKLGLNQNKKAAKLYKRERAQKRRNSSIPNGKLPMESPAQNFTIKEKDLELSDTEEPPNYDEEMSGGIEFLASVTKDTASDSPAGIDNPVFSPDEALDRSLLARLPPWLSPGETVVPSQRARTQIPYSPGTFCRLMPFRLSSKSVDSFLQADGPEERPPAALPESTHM
Summary of the method: as §1

[3] = biological target: T2, Human NHE3; test: Cell-based NHE3 activity under persistent conditions (60 min incubation, washout), human NHE3; conditions: Table E5; dihydrochloride salt
[4] = tested on: absorption of sodium from the intestinal lumen; test: Inhibition of intestinal sodium absorption: urinary sodium (uNa) 16 h after single oral dose in rats; assay type: in vivo, rat; conditions: for UNa (%): urinary Na excretion as % of vehicle
Summary of the method: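 Urinary sodium mass over the 16 h after one oral gavage dose, measured by cation-exchange ion chromatography, reported as percent of water-vehicle group; ANOVA plus Dunnett's post hoc test. Groups of six 8-week-old Sprague-Dawley rats, housed individually in metabolic cages post-dose, fed and watered freely.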

SMILES | Rat NHE3 pIC50 Prompt [1] | Human NHE3 pIC50 Prompt [2] | pIC50 Prompt [2] | Human NHE3 pIC50 Persistent [3] | effect on urinary Na (UNa) ([4]; in words) | UNa (%) ([4]; single oral dose 10 mg/kg) | UNa (%) ([4]; single oral dose 1 mg/kg)
CN1Cc2c(Cl)cc(Cl)cc2[C@@H](c2cccc(S(=O)(=O)NCCOCCOCCNC(=O)NCCCCNC(=O)NCCOCCOCCNS(=O)(=O)c3cccc([C@H]4CN(C)Cc5c(Cl)cc(Cl)cc54)c3)c2)C1 [Cpd 004] | 7.3 | 7.3 | 7.3 | 5.6 | no significant effect | 68 @ 10 mg/kg % | –
CN1Cc2c(Cl)cc(Cl)cc2[C@H](c2cccc(S(=O)(=O)NCCOCCOCCNC(=O)NCCCCNC(=O)NCCOCCOCCNS(=O)(=O)c3cccc([C@@H]4CN(C)Cc5c(Cl)cc(Cl)cc54)c3)c2)C1 [Cpd 002] | 8 | 8 | 8 | 8.2 | – | – | 11 @ 1 mg/kg %
